Values quoted from earlier work, collected in US20070225210A1, “Therapeutic vaccine compositions for the treatment of type 1 diabetes” (priority 2003, published 2007).

Key:
[1] = tested on: individuals with, or at risk of, type 1 diabetes; details: repeat administration of low doses
insulin = details: aqueous formulations, administered subcutaneously, NOD mice

Substance	protection from the onset of diabetes (NOD mice; immunization)	symptoms of diabetes and insulin-dependency of the patient [1]	prevention of the onset of diabetes (NOD mice; aqueous formulations, administered subcutaneously)	protection against diabetes (NOD mice; immunization, administered intranasally)	immune response to insulin (insulin)
insulin B chain: native human insulin B chain peptide with cysteinyl residues at positions 7 and 19	protect from the onset of diabetes	can prevent or reduce the symptoms of diabetes and the insulin-dependency of the patient			
SHLVEALYLVCGERG (Insulin B chain analog) [insulin B chain 9-23, 9-23 fragment of the native insulin B chain]	protect from the onset of diabetes		can prevent the onset of diabetes	partial protection against diabetes	can induce an immune response to insulin
